Tests used:
neuropathic pain = details: rats; WO 02/087569; cited from earlier work
[1] = tested on: acute thermal nociception; details: rats; WO 02/087569; cited from earlier work
[2] = Solubility determination in water; type: physicochemical; details: thermodynamic from solid; in water at 5, 1 and 0.1 mg/mL; pH of resulting solutions 7-8.5
Protocol: Physical Chemical Properties
Solubility determinations were made by mixing the test compound in water at 5 mg/mL, 1 mg/mL, and 0.1 mg/mL concentrations. The pH of the resulting solutions was 7-8.5.

[3] = Pharmacokinetic testing, intravenous bolus in rats; type: in vivo; details: rat, plasma, 2 mg/kg, male Sprague Dawley rats, 1 mg/mL in 2 mL/kg
Protocol: For each test compound, two male Sprague Dawley Rats (Charles River Laboratories; approx. 300 g body weight) were used. Animals were individually housed, provided food and water ad libitum, and were maintained on a 12 h light and dark cycle. Animals received from the vendor were surgically cannulated by the vendor with right jugular vein and left carotid artery catheters. Animals were acclimatized for at least 5 days after receipt from the vendor prior to investigations.
Animals received a bolus intravenous dose of the test compound at a dose of 1 mg/mL in a volume of 2 mL/kg via the right jugular vein catheter. The intravenous dosing solution was prepared in 55% pharmasolve, 20% cremophor, and […] physiological saline, or 100% saline adjusted to pH 8.0.
Following intravenous administration, blood was collected (sampled 0.35 mL per time point from the left carotid artery catheter) at 0.083, 0.25, 0.5, 1, 2, 4, and 6 h post-dose. Blood was collected into tubes containing EDTA and stored at 4° C. for not more than 2 h. The samples were centrifuged at 10,000 rpm in a micro-centrifuge for 5 min to obtain a plasma fraction. The plasma was stored at between −20 and −80° C. until processed for analysis. These samples were analyzed by LC-MS/MS to determine the plasma level of the compound.
Plasma level vs. time plots were created and WinNonlin (Pharsight Corp.) was used to analyze the data. A non-compartmental pharmacokinetic model was used to determine the pharmacokinetic parameters, including clearance, volume of distribution (Vd), and half-life (t1/2).

Rat FAAH = molecular target: T1, Rat FAAH (Rattus norvegicus, UniProt P97612); assay: Assay Method 2: FAAH assay, 3H-anandamide hydrolysis in cell homogenate (SK-N-MC cells transfected with rat FAAH); type: biochemical; details: 3H-AEA 80 nM, rt 1 h, pH 9
T1 construct: expressed in transfected cells
T1 sequence (P97612 1-579): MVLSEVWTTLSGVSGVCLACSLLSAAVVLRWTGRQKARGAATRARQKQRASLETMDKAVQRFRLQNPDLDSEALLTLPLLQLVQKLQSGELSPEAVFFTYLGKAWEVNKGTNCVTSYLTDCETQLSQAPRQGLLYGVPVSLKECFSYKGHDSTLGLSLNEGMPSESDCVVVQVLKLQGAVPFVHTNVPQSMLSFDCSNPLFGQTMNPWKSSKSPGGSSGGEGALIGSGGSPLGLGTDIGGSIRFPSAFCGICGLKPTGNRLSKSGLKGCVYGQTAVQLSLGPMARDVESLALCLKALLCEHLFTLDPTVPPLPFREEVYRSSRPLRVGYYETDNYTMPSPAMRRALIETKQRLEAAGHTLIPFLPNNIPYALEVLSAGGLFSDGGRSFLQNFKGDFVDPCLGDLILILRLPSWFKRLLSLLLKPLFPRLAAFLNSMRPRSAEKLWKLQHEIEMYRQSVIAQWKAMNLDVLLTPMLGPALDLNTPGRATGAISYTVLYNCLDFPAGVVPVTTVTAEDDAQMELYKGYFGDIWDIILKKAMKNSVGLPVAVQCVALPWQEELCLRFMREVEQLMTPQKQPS
Protocol: A. Transfection of Cells with Rat FAAH
(§1) A 10-cm tissue culture dish with a confluent monolayer of SK—N-MC cells was split 2 days (d) prior to transfection. Using sterile technique, the media was removed and the cells were detached from the dish by the addition of trypsin. One fifth of the cells were then placed onto a new 10-cm dish. Cells were grown in a 37° C. incubator with 5% CO2 in Minimal Essential Media Eagle with 10% Fetal Bovine Serum. After 2 d, cells were approximately 80% confluent. These cells were removed from the dish with trypsin and pelleted in a clinical centrifuge. The pellet was re-suspended in 400 μL complete media and transferred to an electroporation cuvette with a 0.4 cm gap between the electrodes. Supercoiled rat FAAH cDNA (1 μg) was added to the cells and mixed. The voltage for the electroporation was set at 0.25 kV, and the capacitance was set at 960 μF. After electroporation, the cells were diluted into complete media (10 mL) and plated onto four 10-cm dishes. Because of the variability in the efficiency of electroporation, four different concentrations of cells were plated. The ratios used were 1:20, 1:10, and 1:5, with the remainder of the cells being added to the fourth dish. The cells were allowed to recover for 24 h before adding the selection media (complete media with 600 μg/mL G418). After 10 d, dishes were analyzed for surviving colonies of cells. Dishes with well-isolated colonies were used. Cells from individual colonies were isolated and tested.
The assay mixture consisted of 50 μL of the cell homogenate, 10 μL of the test compound, and 40 μL of anandamide [1-^3H-ethanolamine] (^3H-AEA, Perkin-Elmer, 10.3 Ci/mmol), which was added last, for a final tracer concentration of 80 nM. The reaction mixture was incubated at rt for 1 h. During the incubation, 96-well Multiscreen filter plates (catalog number MAFCNOB50; Millipore, Bedford, Mass., USA) were loaded with 25 μL of activated charcoal (Multiscreen column loader, catalog number MACL09625, Millipore) and washed once with 100 μL of MeOH. […] After the 1 h incubation, 60 μL of the reaction mixture were transferred to the charcoal plates, which were then assembled on top of the DYNEX plates using Centrifuge Alignment Frames (catalog number MACF09604, Millipore). The unbound labeled ethanolamine was centrifuged through to the bottom plate (5 min at 2000 rpm), which was preloaded with the scintillant, as described above. The plates were sealed and left at rt for 1 h before counting on a Hewlett Packard TopCount.

FAAH [4] = molecular target: T2, FAAH (Rattus norvegicus, UniProt P97612); assay: Assay Method 1A: FAAH enzyme assay, 14C-oleamide hydrolysis, solubilized liver plasma membrane extract;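 also: ki obtained by Dixon analysis, taking the x-intercept of inhibitor concentration versus reciprocal rate plots at fixed substrate level and correcting for substrate concentration relative to Km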
T2 sequence (P97612 1-579): T1 sequence (P97612 1-579)
Protocol: Linear least squares fits were used for all reaction progress curves and R^2 values were consistently >0.97. […] Ki values were determined by the Dixon Method (x-intercepts of weighted linear fits of [I] versus 1/rate plots at constant substrate concentration, which were converted to Ki values using the formula Ki=−xint/[1+[S]/Km]).

FAAH [5] = molecular target: T3, FAAH (Homo sapiens, UniProt O00519); assay: Assay Method 1B: FAAH assay, 3H-anandamide hydrolysis in cell homogenate (T84 or SK-N-MC cells transfected with human FAAH); type: biochemical; parameters: expressed in transfected cells; details: 3H-AEA 80 nM, rt 1 h, pH 9
T3 sequence (O00519 1-579): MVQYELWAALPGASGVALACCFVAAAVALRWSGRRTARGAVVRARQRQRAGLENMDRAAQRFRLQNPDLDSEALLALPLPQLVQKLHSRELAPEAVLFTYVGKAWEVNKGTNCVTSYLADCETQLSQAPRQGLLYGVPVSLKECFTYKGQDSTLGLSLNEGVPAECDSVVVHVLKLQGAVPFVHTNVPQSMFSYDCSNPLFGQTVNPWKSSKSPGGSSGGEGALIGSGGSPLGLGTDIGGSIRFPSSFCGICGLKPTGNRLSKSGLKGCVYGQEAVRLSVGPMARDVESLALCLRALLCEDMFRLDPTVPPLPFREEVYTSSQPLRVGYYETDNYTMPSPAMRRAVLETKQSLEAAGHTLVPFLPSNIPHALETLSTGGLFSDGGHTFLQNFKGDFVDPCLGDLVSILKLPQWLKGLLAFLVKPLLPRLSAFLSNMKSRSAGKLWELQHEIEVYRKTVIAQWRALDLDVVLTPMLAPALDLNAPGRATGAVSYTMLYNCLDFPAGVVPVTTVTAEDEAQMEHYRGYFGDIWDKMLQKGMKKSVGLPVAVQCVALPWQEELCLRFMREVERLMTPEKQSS
Protocol: as §1, with “Transfection of Cells with Human FAAH A 10-cm” for “A 10-cm”, “electrodes. Supercoiled human FAAH cDNA” for “electrodes. Supercoiled rat FAAH cDNA”, “and tested. […] The reaction mixture was incubated at rt for 1 h. During the incubation, 96-well Multiscreen filter plates (catalog number MAFCNOB50; Millipore, Bedford, Mass., USA) were loaded with 25 μL of activated charcoal (Multiscreen column loader, catalog number MACL09625, Millipore) and washed once with 100 μL of MeOH. Also during the incubation, 96-well DYNEX MicroLite plates (catalog number NL510410) were loaded with 100 μL of MicroScint40 (catalog number 6013641, Packard Bioscience, Meriden, Conn., USA). After the 1 h incubation, 60 μL of the reaction mixture were transferred to the charcoal plates, which were then assembled on top of the DYNEX plates using Centrifuge Alignment Frames (catalog number MACF09604, Millipore). The unbound labeled ethanolamine was centrifuged through to the bottom plate (5 min at 2000 rpm), which was preloaded with the scintillant, as described above. The plates were sealed and left at rt for 1 h before counting on a Hewlett Packard TopCount.” for “and tested.”

thermal nociception [6] = details: rats; WO 04/033652; cited from earlier work
FAAH [7] = molecular target: T3, FAAH; details: reported; cited from earlier work
thermal nociception [8] = details: rats; WO 04/033652; cited from earlier work; remark: listed apart in the source

| Structure (SMILES) | IC50 (Rat FAAH) [nM] | Ki (FAAH [4]) [nM] | IC50 (FAAH [5]) [nM] | other results |
| --- | --- | --- | --- | --- |
| Cc1nc(-c2ccccc2)c(-c2ccccc2)n1CCCCCCNC(=O)Oc1ccccc1F [BMS-1] | – | – | – | analgesic effect in the Chung spinal nerve ligation model (neuropathic pain): analgesic effect; analgesic effect in the Hargraves test [1]: analgesic effect |
| O=C(CCCCCCc1ccccc1)c1ncc(-c2ccccn2)o1 [Comp. Ex. 1, 7-Phenyl-1-(5-pyridin-2-yl-oxazol-2-yl)-heptan-1-one, reference compound] | – | – | – | solubility [2]: < 100 µg/mL; Vd [3]: 27.3 L/kg; clearance [3]: 98.3 mL/min/kg; half-life [3]: 3.23 h |
| O=C(CCCCCCc1ccccc1)c1ncc(-c2ccco2)o1 [Comp. Ex. 2, 1-(5-Furan-2-yl-oxazol-2-yl)-7-phenyl-heptan-1-one, reference compound] | – | – | – | solubility [2]: < 100 µg/mL; Vd [3]: 22.9 L/kg; clearance [3]: 63.3 mL/min/kg; half-life [3]: 3.49 h |
| O=C(CCCCCCc1ccccc1)c1ncc(-c2cc(=O)[nH]c(=O)[nH]2)o1 [Example 52, 6-(2-(7-Phenylheptanoyl)oxazol-5-yl)pyrimidine-2,4(1H,3H)-dione] | 1.5 | 19 | 0.1 | – |
| O=C(O)c1ccc(-c2cnc(C(=O)CCCCCCc3ccccc3)o2)o1 [Example 56, 5-(2-(7-Phenylheptanoyl)oxazol-5-yl)furan-2-carboxylic acid] | 2 | 15 | 0.8 | solubility [2]: > 5000 µg/mL |
| COC(=O)c1ccc(-c2cnc(C(=O)CCCCCCc3ccccc3)o2)s1 [Example 57, Methyl 5-(2-(7-phenylheptanoyl)oxazol-5-yl)thiophene-2-carboxylate] | 75 | 7 | 6 | – |
| O=C(CCCCCCc1ccccc1)c1ncc(-c2ccccn2)o1 [OL-135] | – | – | – | analgesic activity in the hot plate test (thermal nociception [6]): analgesic activity; inhibition of FAAH (FAAH [7]): potent inhibitor; analgesic activity in the tail emersion test (thermal nociception [8]): analgesic activity |

Further lines, with some results ahead:

| IC50 (Rat FAAH) [nM] | Ki (FAAH [4]) [nM] | IC50 (FAAH [5]) [nM] | Structure (SMILES) | other results |
| --- | --- | --- | --- | --- |
| 9 | 4 | 11 | COC(=O)c1ccc(-c2cnc(C(=O)CCCCCCc3ccccc3)o2)nc1 [Example 34, Methyl 6-(2-(7-phenylheptanoyl)oxazol-5-yl)nicotinate] | – |
| 150 | > 50 | 180 | COC(=O)c1cccnc1-c1cnc(C(=O)CCCCCCc2ccccc2)o1 [Example 36, Methyl 2-(2-(7-phenylheptanoyl)oxazol-5-yl)nicotinate] | – |
| 20 | 6 | 11 | COC(=O)c1ccc(-c2cnc(C(=O)CCCCCCc3ccccc3)o2)o1 [Example 55, Methyl 5-(2-(7-phenylheptanoyl)oxazol-5-yl)furan-2-carboxylate] | – |
| 9 | 11 | 1 | O=C(CCCCCCc1ccccc1)c1ncc(-c2ccc(C(=O)O)s2)o1 [Example 58, 5-(2-(7-Phenylheptanoyl)oxazol-5-yl)thiophene-2-carboxylic acid] | – |
| 8 | 3 | 2 | NS(=O)(=O)c1ccc(-c2cnc(C(=O)CCCCCCc3ccccc3)o2)s1 [Example 59, 5-(2-(7-Phenylheptanoyl)oxazol-5-yl)thiophene-2-sulfonamide] | – |
| 3000 | 6000 | 440 | O=C(CCCCCCc1ccccc1)c1ncc(-c2ccccc2C(=O)O)o1 [Example 60, 2-(2-(7-Phenylheptanoyl)oxazol-5-yl)benzoic acid] | – |

— patent US7915270B2, “Oxazole ketones as modulators of fatty acid amide hydrolase” (The Scripps Research Institute, priority 2006, dated 2011)
